Assay results from US7737118B2, “Rotational intrathecal analgesia” (Omeros Corporation, priority 2001, dated 2010).

Key:
Assay type in all cases: in vivo
male Sprague-Dawley rats [1] = assay: Rat HWL study, both types of stimulation: analgesia and development of complete tolerance; conditions: drug alone, intrathecal every 12 hrs; mechanical and thermal HWL
Procedure: Experiments were performed on male Sprague-Dawley rats having a weight of 200-250 g. The rats were housed in cages with free access to food and water. Room temperature was maintained at 24±2° C. and a 12 hr light/dark cycle was maintained. All experiments were conducted according to the guidelines of the Committee on Animal Research at the University of California at San Francisco. Every effort was made to minimize animal suffering.
A polyethylene catheter (Intramedic PE 10) was permanently implanted intrathecally with the inner tip at L3 to L5 in each animal. Rats displaying movement disorders following placement of the catheter were not used in the study. […]
In the morphine only group, 8 μg morphine HCl was injected every 12 hrs until complete tolerance developed and in the nociceptin only group, 10 nmol nociceptin was injected every 12 hrs until complete tolerance developed. These doses were chosen from previous studies that determined an equianalgesic dosing for these two drugs. […]
The rats were trained with the testing conditions for five days prior to the experiments to decrease the stress response caused by handling and measurements and to obtain baseline responses. The hindpaw withdrawal latency (HWL) was measured for both thermal and mechanical stimulation. […] The HWLs were measured 15 min after the second intrathecal injection on a daily basis. […]

male Sprague-Dawley rats [2] = assay: Rat hindpaw withdrawal latency (HWL) to thermal stimulation (hot-plate test, 52° C.); conditions: for % Changes of HWL to Thermal Stimulation 10 Minutes After Intrathecal Injection, Left: Left hindpaw; for % Changes of HWL to Thermal Stimulation 10 Minutes After Intrathecal Injection, Right: Right hindpaw
male Sprague-Dawley rats [3] = assay: Rat hindpaw withdrawal latency (HWL) to mechanical stimulation (Randall Selitto Test); conditions: for % Changes of HWL to Mechanical Stimulation 10 Minutes After Intrathecal Injection, Left: Left hindpaw; for % Changes of HWL to Mechanical Stimulation 10 Minutes After Intrathecal Injection, Right: Right hindpaw
[4] = day 1, intrathecal every 12 hrs: 8 μg morphine, 10 nmol nociceptin, or rotated every two days
[5] = day 2, intrathecal every 12 hrs: 8 μg morphine, 10 nmol nociceptin, or rotated every two days
[6] = day 3, intrathecal every 12 hrs: 8 μg morphine, 10 nmol nociceptin, or rotated every two days
[7] = day 4, intrathecal every 12 hrs: 8 μg morphine, 10 nmol nociceptin, or rotated every two days
[8] = day 5, intrathecal every 12 hrs: 8 μg morphine, or morphine/nociceptin rotated every two days
[9] = day 6, intrathecal every 12 hrs: 8 μg morphine, or morphine/nociceptin rotated every two days
[10] = day 1, drug alone, intrathecal (morphine 8 μg or nociceptin 10 nmol every 12 hrs)

CN1CC[C@]23c4c5ccc(O)c4O[C@H]2[C@@H](O)C=C[C@H]3[C@H]1C5.Cl [Morphine, morphine HCl]
day by which total/complete tolerance exists (male Sprague-Dawley rats [1]): 6 days
% Changes of HWL to Thermal Stimulation 10 Minutes After Intrathecal Injection, Left (male Sprague-Dawley rats [2]; [4]): 66.26 ± 2.20%
% Changes of HWL to Thermal Stimulation 10 Minutes After Intrathecal Injection, Left (male Sprague-Dawley rats [2]; [5]): 61.25 ± 3.05%
% Changes of HWL to Thermal Stimulation 10 Minutes After Intrathecal Injection, Left (male Sprague-Dawley rats [2]; [6]): 51.66 ± 1.73%
% Changes of HWL to Thermal Stimulation 10 Minutes After Intrathecal Injection, Left (male Sprague-Dawley rats [2]; [7]): 43.63 ± 1.38%
% Changes of HWL to Thermal Stimulation 10 Minutes After Intrathecal Injection, Left (male Sprague-Dawley rats [2]; [8]): 23.85 ± 1.03%
% Changes of HWL to Thermal Stimulation 10 Minutes After Intrathecal Injection, Left (male Sprague-Dawley rats [2]; [9]): −1.30 ± 2.36%
% Changes of HWL to Thermal Stimulation 10 Minutes After Intrathecal Injection, Right (male Sprague-Dawley rats [2]; [4]): 66.66 ± 1.51%
% Changes of HWL to Thermal Stimulation 10 Minutes After Intrathecal Injection, Right (male Sprague-Dawley rats [2]; [5]): 63.11 ± 0.64%
% Changes of HWL to Thermal Stimulation 10 Minutes After Intrathecal Injection, Right (male Sprague-Dawley rats [2]; [6]): 48.74 ± 2.40%
% Changes of HWL to Thermal Stimulation 10 Minutes After Intrathecal Injection, Right (male Sprague-Dawley rats [2]; [7]): 42.45 ± 1.70%
% Changes of HWL to Thermal Stimulation 10 Minutes After Intrathecal Injection, Right (male Sprague-Dawley rats [2]; [8]): 25.07 ± 2.07%
% Changes of HWL to Thermal Stimulation 10 Minutes After Intrathecal Injection, Right (male Sprague-Dawley rats [2]; [9]): 0.51 ± 1.61%
HWL increase using thermal stimulation (male Sprague-Dawley rats [2]; [10]): approximately 67%
% Changes of HWL to Mechanical Stimulation 10 Minutes After Intrathecal Injection, Left (male Sprague-Dawley rats [3]; [4]): 53.99 ± 2.96%
% Changes of HWL to Mechanical Stimulation 10 Minutes After Intrathecal Injection, Left (male Sprague-Dawley rats [3]; [5]): 47.69 ± 2.54%
% Changes of HWL to Mechanical Stimulation 10 Minutes After Intrathecal Injection, Left (male Sprague-Dawley rats [3]; [6]): 33.85 ± 1.60%
% Changes of HWL to Mechanical Stimulation 10 Minutes After Intrathecal Injection, Left (male Sprague-Dawley rats [3]; [7]): 31.37 ± 2.02%
% Changes of HWL to Mechanical Stimulation 10 Minutes After Intrathecal Injection, Left (male Sprague-Dawley rats [3]; [8]): 15.30 ± 1.39%
% Changes of HWL to Mechanical Stimulation 10 Minutes After Intrathecal Injection, Left (male Sprague-Dawley rats [3]; [9]): 3.26 ± 1.86%
% Changes of HWL to Mechanical Stimulation 10 Minutes After Intrathecal Injection, Right (male Sprague-Dawley rats [3]; [4]): 56.04 ± 3.38%
% Changes of HWL to Mechanical Stimulation 10 Minutes After Intrathecal Injection, Right (male Sprague-Dawley rats [3]; [5]): 46.74 ± 2.52%
% Changes of HWL to Mechanical Stimulation 10 Minutes After Intrathecal Injection, Right (male Sprague-Dawley rats [3]; [6]): 33.44 ± 1.03%
% Changes of HWL to Mechanical Stimulation 10 Minutes After Intrathecal Injection, Right (male Sprague-Dawley rats [3]; [7]): 28.84 ± 2.73%
% Changes of HWL to Mechanical Stimulation 10 Minutes After Intrathecal Injection, Right (male Sprague-Dawley rats [3]; [8]): 16.54 ± 1.26%
% Changes of HWL to Mechanical Stimulation 10 Minutes After Intrathecal Injection, Right (male Sprague-Dawley rats [3]; [9]): 2.72 ± 1.94%
HWL increase using mechanical stimulation (male Sprague-Dawley rats [3]; [10]): ~55%
